Patent US7846963B2, “2-oxo-heterocyclic compounds and the pharmaceutical compositions comprising the same” (Korea Research Institute of Bioscience and Biotechnology, priority 2003, dated 2010)

These compounds were tested on production of TNF-alpha in RAW 264.7 cells (assay: Inhibition of TNF-alpha production in LPS-treated RAW 264.7 cells, ELISA of culture supernatant). Details: Mus musculus, RAW264.7, Table 23, LPS 0.3 μg/ml, 24 hours, compounds up to 10 μM, IC50 unit inferred.
Type: cell-based, mouse
Experimental: To test the inhibiting activity of the compounds prepared from above Examples on the production of TNF-alpha, the concentration of TNF-alpha in the cell supernatant was measured.
Each 200 μl of RAW 264.7 cells (ATCC, USA), a mouse macrophage cell line was seeded onto each well of 96-well microtiter plate (Nunc, Sweden) to the concentration ranging from 1×10^6 cells/ml to 5×10^6 cells/ml, and incubated in DMEM (Dulbeco's modified eagles medium) media containing 5% FBS (fetal bovine serum) at 37° C. in 5% CO2 incubator.
Various concentrations of the compounds of the present invention ranging from […] to 10 μM and LPS (Sigma, USA) in the final concentration of 0.3 μg/ml were treated to activated cell simultaneously. The treated cells were cultured at 37° C. for 24 hours in 5% CO2 incubator and the cultured cells were collected after the cultivation
And then the concentration of TNF-alpha secreted from the culture supernatant of RAW 264.7 cells was determined by ELISA according to the manufacture's instruction (R&D Systems, Minneapolis, Minn.).
The result was shown in Table 23 (AA: IC50's<1, A: IC50's<5, B: IC50's<10, C: IC50's>10).

Question: Which IC50 does the source give for O=C(CC1=CCCN(CCCc2ccccc2)C1=O)NO [Example 85, N-hydroxy-2-[2-oxo-1-(3-phenyl-propyl)-1,2,5,6-tetrahydro-pyridin-3-yl]-N-hydroxy-acetamide] here?
Answer: < 10 µM

Question: For COc1ccc(CN2CCC(CC(=O)NO)C2=O)c(OC)c1 (stereo not shown) [Example 26, 2-[1-(2,4-dimethoxy-benzyl)-2-oxo-pyrrolidin-3-yl]-N-hydroxy-acetamide], which IC50 is on record?
Answer: > 10 µM

Question: C=CCN1CCC=C(CCC(=O)NO)C1=O [Example 101, 3-(1-Allyl-2-oxo-1,2,5,6-tetrahydro-pyridin-3-yl)-N-hydroxy-propionamide] was tested. Which IC50 did it give?
Answer: < 1 µM

Question: How did the IC50 turn out when O=C(CCC1=CCN(Cc2ccc(Cl)cc2)C1=O)NO [Example 13, 3-[1-(4-chloro-benzyl)-2-oxo-2,5-dihydro-1H-pyrrol-3-yl]-N-hydroxy-propionamide] was run?
Answer: < 5 µM

Question: For O=C(CC1=CCCN(CCCCc2ccccc2)C1=O)NO [Example 86, N-hydroxy-2-[2-oxo-1-(4-phenyl-butyl)-1,2,5,6-tetrahydro-pyridin-3-yl]-N-hydroxy-acetamide], which IC50 is on record?
Answer: < 5 µM

Question: With O=C(O)CC1=CCCN(CCc2ccccc2)C1=O [Example 89, (2-oxo-1-phenethyl-1,2,5,6-tetrahydro-pyridin-3-yl)-acetic acid] as the compound, how does the IC50 read?
Answer: < 5 µM

Question: How did the IC50 turn out when O=C(CCC1=CCN(Cc2ccc(OCc3ccccc3)cc2)C1=O)NO [Example 14, 3-[1-(4-benzyloxy-benzyl)-2-oxo-2,5-dihydro-1H-pyrrol-3-yl]-N-hydroxy-propionamide] was run?
Answer: > 10 µM

Question: Which IC50 does the source give for O=C(CCC1=CCN(CCCc2ccc(-c3ccccc3)cc2)C1=O)NO [Example 55, 3-[1-(3-biphenyl-4-yl-propyl)-2-oxo-2,5-dihydro-1H-pyrrol-3-yl]-N-hydroxy-propionamide] here?
Answer: < 5 µM

Question: How did the IC50 turn out when CC(C)c1ccc(CCCN2CC=C(CCC(=O)NO)C2=O)cc1 [Example 43, N-hydroxy-3-{1-[3-(4-isopropyl-phenyl)-propyl]-2-oxo-2,5-dihydro-1H-pyrrol-3-yl]-propionamide] was run?
Answer: < 5 µM

Question: Which IC50 does the source give for O=C(CCC1=CCCNC1=O)NOCc1ccccc1 [Example 100, N-Benzyloxy-3-(2-oxo-1,2,5,6-tetrahydro-pyridin-3-yl)-propionamide] here?
Answer: < 5 µM

Question: For O=C(CCC1=CCCN(CCc2ccccc2)C1=O)NO [Example 60], which IC50 is on record?
Answer: < 5 µM

Question: How did the IC50 turn out when COc1ccc(CN2CC=C(CCC(=O)NO)C2=O)c(OC)c1 [Example 1, 3-[1-(2,4-Dimethoxybenzyl)-2-oxo-2,5-dihydro-1H-pyrrol-3-yl]-N-hydroxypropionamide] was run?
Answer: < 10 µM

Question: For COc1ccc(CN2CC=C(CCC(=O)O)C2=O)c(OC)c1 [Example 16, 3-[1-(2,4-dimethoxy-benzyl)-2-oxo-2,5-dihydro-1H-pyrrol-3-yl]-propionic acid], which IC50 is on record?
Answer: > 10 µM

Question: How did the IC50 turn out when O=C(CCC1CCCN(CCc2ccccc2)C1=O)NO (stereo not shown) [Example 81, N-hydroxy-3-(2-oxo-1-phenethyl-piperidine-3-yl)-propionamide] was run?
Answer: < 5 µM

Question: With O=C(O)CCC1=CCCNC1=O [Example 99, 3-(2-oxo-1,2,5,6-tetrahydro-pyridin-3-yl)-propionic acid] as the compound, how does the IC50 read?
Answer: < 10 µM

Question: Cc1cccc(CN2CC=C(CCC(=O)NO)C2=O)c1 [Example 7, N-hydroxy-3-[1-(3-methyl-benzyl)-2-oxo-2,5-dihydro-1H-pyrrol-3-yl]-propionamide] was tested. Which IC50 did it give?
Answer: < 5 µM

Question: For CN1CCC=C(CCC(=O)NO)C1=O [Example 102, N-hydroxy-3-(1-methyl-2-oxo-1,2,5,6-tetrahydro-pyridin-3-yl)-propionamide], which IC50 is on record?
Answer: < 1 µM

Question: Which IC50 does the source give for O=C(CC1=CCN(Cc2ccccc2)C1=O)NO [Example 20, 2-(1-benzyl-2-oxo-2,5-dihydro-1H-pyrrol-3-yl)-N-hydroxy-acetamide] here?
Answer: > 10 µM

Question: For COc1cccc(CN2CC=C(CCC(=O)NO)C2=O)c1 [Example 10, N-hydroxy-3-[1-(3-methoxy-benzyl)-2-oxo-2,5-dihydro-1H-pyrrol-3-yl]-propionamide], which IC50 is on record?
Answer: < 5 µM

Question: For CC(=O)Nc1ccc(CN2CCC=C(CCC(=O)NO)C2=O)cc1 [Example 74, 3-[1-(4-acetylamino-benzyl)-2-oxo-1,2,5,6-tetrahydro-pyridin-3-yl]-N-hydroxy-propionamide], which IC50 is on record?
Answer: > 10 µM

Question: Which IC50 does the source give for CC(=O)Nc1ccc(CN2CCC=C(CCC(=O)O)C2=O)cc1 [Example 78, 3-[1-(4-acetylamino-benzyl)-2-oxo-1,2,5,6-tetrahydro-pyridin-3-yl]-propionic acid] here?
Answer: < 5 µM

Question: For COc1ccc(CN2CCC=C(CC(=O)NO)C2=O)c(OC)c1 [Example 82, 2-[1-(2,4-dimethoxy-benzyl)-2-oxo-1,2,5,6-tetrahydro-pyridin-3-yl]-N-hydroxy-acetamide], which IC50 is on record?
Answer: < 5 µM

Question: How did the IC50 turn out when O=C(CCCC1=CCCN(CCCc2ccccc2)C1=O)NO [Example 97, N-hydroxy-4-[2-oxo-1-(3-phenyl-propyl)-1,2,5,6-tetrahydro-pyridin-3-yl]-butylamide] was run?
Answer: < 5 µM

Question: O=C(CC1=CCN(CCc2ccccc2)C1=O)NO [Example 22, N-hydroxy-2-(2-oxo-1-phenethyl-2,5-dihydro-1H-pyrrol-3-yl)-acetamide] was tested. Which IC50 did it give?
Answer: > 10 µM

Question: O=C(CC1CCN(CCc2ccccc2)C1=O)NO (stereo not shown) [Example 27, N-hydroxy-2-(2-oxo-1-phenethyl-pyrrolidin-3-yl)-acetamide] was tested. Which IC50 did it give?
Answer: > 10 µM

Question: O=C(CCC1=CCCN(CCc2cccs2)C1=O)NO [Example 104, N-hydroxy-3-[2-oxo-1-(2-thiophen-2-yl-ethyl)-1,2,5,6-tetrahydro-pyridin-3-yl]-propionamide] was tested. Which IC50 did it give?
Answer: > 10 µM

Question: With O=C(CCC1=CCN(CCc2ccccc2Br)C1=O)NO [Example 34, 3-{1-[2-(2-bromo-phenyl)-ethyl]-2-oxo-2,5-dihydro-1H-pyrrol-3-yl}-N-hydroxy-propionamide] as the compound, how does the IC50 read?
Answer: < 5 µM

Question: With O=C(CCC1=CCN(CCc2cccc(F)c2)C1=O)NO [Example 29, 3-{1-[2-(3-fluoro-phenyl)-ethyl]-2-oxo-2,5-dihydro-1H-pyrrol-3-yl}-N-hydroxy-propionamide] as the compound, how does the IC50 read?
Answer: < 5 µM

Question: For O=C(CCC1=CCN(Cc2ccc([N+](=O)[O-])cc2)C1=O)NO [Example 15, N-hydroxy-3-[1-(4-nitro-benzyl)-2-oxo-2,5-dihydro-1H-pyrrol-3-yl]-propionamide], which IC50 is on record?
Answer: < 10 µM

Question: O=C(O)CCC1=CCCN(Cc2ccccc2)C1=O [Example 64, 3-(1-benzyl-2-oxo-1,2,5,6-tetrahydro-pyridin-3-yl)-propionic acid] was tested. Which IC50 did it give?
Answer: > 10 µM

Question: O=C(O)CCC1=CCCN(Cc2ccc(NC(=O)c3ccccc3)cc2)C1=O [Example 79, 3-[1-(4-benzoylamino-benzyl)-2-oxo-1,2,5,6-tetrahydro-pyridin-3-yl]-propionic acid] was tested. Which IC50 did it give?
Answer: < 5 µM

Question: With O=C(O)CC1=CCCN(Cc2ccccc2)C1=O [Example 88, (1-benzyl-2-oxo-1,2,5,6-tetrahydro-pyridin-3-yl)-acetic acid] as the compound, how does the IC50 read?
Answer: < 1 µM

Question: How did the IC50 turn out when O=C(CCC1=CCN(CCc2ccc(F)cc2)C1=O)NO [Example 30, 3-{1-[2-(4-fluoro-phenyl)-ethyl]-2-oxo-2,5-dihydro-1H-pyrrol-3-yl}-N-hydroxy-propionamide] was run?
Answer: < 5 µM

Question: O=C(CCC1=CCN(CCCCc2ccccc2)C1=O)NO [Example 5, N-hydroxy-3-[2-oxo-1-(4-phenyl-butyl)-2,5-dihydro-1H-pyrrol-3-yl]-propionamide] was tested. Which IC50 did it give?
Answer: < 5 µM

Question: With CS(=O)(=O)N(c1ccc(CN2CCC=C(CCC(=O)NO)C2=O)cc1)S(C)(=O)=O [Example 76, N-hydroxy-3-[1-(4-dimethylsulfonylamino-benzyl)-2-oxo-1,2,5,6-tetrahydro-pyridin-3-yl]-propionamide] as the compound, how does the IC50 read?
Answer: > 10 µM

Question: With O=C(CCC1=CCN(CCc2ccc(Br)cc2)C1=O)NO [Example 35, 3-{1-[2-(4-bromo-phenyl)-ethyl]-2-oxo-2,5-dihydro-1H-pyrrol-3-yl}-N-hydroxy-propionamide] as the compound, how does the IC50 read?
Answer: < 5 µM

Question: With COc1ccc(CN2CC=C(CCC(=O)NO)C2=O)cc1 [Example 11, N-hydroxy-3-[1-(4-methoxy-benzyl)-2-oxo-2,5-dihydro-1H-pyrrol-3-yl]-propionamide] as the compound, how does the IC50 read?
Answer: < 1 µM

Question: O=C(CCC1=CCN(Cc2ccccc2)C1=O)NO [Example 2, 3-(1-benzyl-2-oxo-2,5-dihydro-1H-pyrrol-3-yl)-N-hydroxy-propionamide] was tested. Which IC50 did it give?
Answer: < 5 µM

Question: For O=C(CCC1=CCN(CCc2ccccc2[N+](=O)[O-])C1=O)NO [Example 31, N-hydroxy-3-{1-[2-(2-nitro-phenyl)-ethyl]-2-oxo-2,5-dihydro-1H-pyrrol-3-yl}-propionamide], which IC50 is on record?
Answer: > 10 µM

Question: For O=C(CCC1=CCCN(Cc2ccc3ccccc3c2)C1=O)NO [Example 103, N-hydroxy-3-(1-(naphthalene-2-yl-methyl)-2-oxo-1,2,5,6-tetrahydro-pyridin-3-yl)-propionamide], which IC50 is on record?
Answer: < 5 µM

Question: COc1ccc(CN2CCCC(CC(=O)NO)C2=O)c(OC)c1 (stereo not shown) [Example 92, 2-[1-(2,4-dimethoxy-benzyl)-2-oxopiperidine-3-yl]-N-hydroxy-acetamide] was tested. Which IC50 did it give?
Answer: < 5 µM

Question: Which IC50 does the source give for O=C(CCC1=CCN(CCCc2ccc(Cl)cc2)C1=O)NO [Example 45, 3-{1-[3-(4-chloro-phenyl)-propyl]-2-oxo-2,5-dihydro-1H-pyrrol-3-yl]-N-hydroxy-propionamide] here?
Answer: < 5 µM

Question: How did the IC50 turn out when O=C(O)CC1=CCCN(CCCCc2ccccc2)C1=O [Example 91, [2-oxo-1-(4-phenyl-butyl)-1,2,5,6-tetrahydro-pyridin-3-yl)-acetic acid] was run?
Answer: < 10 µM
